According to ChEMBL document CHEMBL4138123, “Design, synthesis and biological evaluation of novel pyrazolochalcones as potential modulators of PI3K/Akt/mTOR pathway and inducers of apoptosis in breast cancer cells” (Eur J Med Chem, 2017):

Tests used:
Format in all cases: functional
UACC-257 = assay: Cytotoxicity against human UACC257 cells assessed as cell growth at 0.01 uM after 48 hrs by sulforhodamine B assay relative to control; details: UACC-257, 48 h, read-out: Activity
BT-549 [1] = assay: Cytotoxicity against human BT549 cells assessed as cell growth at 0.1 uM after 48 hrs by sulforhodamine B assay relative to control; details: BT-549, 48 h, read-out: Activity
COLO 205 = assay: Cytotoxicity against human COLO205 cells assessed as growth inhibition after 48 hrs by sulforhodamine B assay; details: COLO 205, 48 h
MCF7 = assay: Cytotoxicity against human MCF7 cells assessed as cell growth at 100 uM after 48 hrs by sulforhodamine B assay relative to control; details: MCF7, 48 h, read-out: Activity
OVCAR-4 [2] = assay: Cytotoxicity against human OVCAR4 cells assessed as cell growth at 10 uM after 48 hrs by sulforhodamine B assay relative to control; details: OVCAR-4, 48 h, read-out: Activity
MDA-MB-468 = assay: Cytotoxicity against human MDA-MB-468 cells assessed as cell growth at 0.1 uM after 48 hrs by sulforhodamine B assay relative to control; details: MDA-MB-468, 48 h, read-out: Activity
NCI-H23 [3] = assay: Cytotoxicity against human NCI-H23 cells assessed as cell growth at 0.01 uM after 48 hrs by sulforhodamine B assay relative to control; details: NCI-H23, 48 h, read-out: Activity
HOP-62 [4] = assay: Cytotoxicity against human HOP62 cells assessed as cell growth at 100 uM after 48 hrs by sulforhodamine B assay relative to control; details: HOP-62, 48 h, read-out: Activity
NCI-H322M = assay: Cytotoxicity against human NCI-H322M cells assessed as cell growth at 1 uM after 48 hrs by sulforhodamine B assay relative to control; details: read-out: Activity
786-0 = assay: Cytotoxicity against human 786-0 cells assessed as cell growth at 0.01 uM after 48 hrs by sulforhodamine B assay relative to control; details: 786-0, 48 h, read-out: Activity
T47D = assay: Cytotoxicity against human T47D cells assessed as growth inhibition after 48 hrs by sulforhodamine B assay
TK-10 = assay: Cytotoxicity against human TK10 cells assessed as cell growth at 0.1 uM after 48 hrs by sulforhodamine B assay relative to control; details: TK-10, 48 h, read-out: Activity
SR = assay: Cytotoxicity against human SR cells assessed as cell growth at 0.01 uM after 48 hrs by sulforhodamine B assay relative to control; details: read-out: Activity
Malme-3M [5] = assay: Cytotoxicity against human MALME-3M cells assessed as cell growth at 1 uM after 48 hrs by sulforhodamine B assay relative to control; details: read-out: Activity
MDA-MB-435 [6] = assay: Cytotoxicity against human MDA-MB-435 cells assessed as growth inhibition after 48 hrs by sulforhodamine B assay; details: MDA-MB-435, 48 h
NCI-H226 = assay: Cytotoxicity against human NCI-H226 cells assessed as cell growth at 100 uM after 48 hrs by sulforhodamine B assay relative to control; details: NCI-H226, 48 h, read-out: Activity
HOP-62 [7] = assay: Cytotoxicity against human HOP62 cells assessed as cell growth at 10 uM after 48 hrs by sulforhodamine B assay relative to control; details: HOP-62, 48 h, read-out: Activity
K562 [8] = assay: Cytotoxicity against human K562 cells assessed as growth inhibition after 48 hrs by sulforhodamine B assay; details: K562, 48 h
MDA-MB-435 [9] = assay: Cytotoxicity against human MDA-MB-435 cells assessed as cell growth at 0.01 uM after 48 hrs by sulforhodamine B assay relative to control; details: MDA-MB-435, 48 h, read-out: Activity
OVCAR-8 = assay: Cytotoxicity against human OVCAR8 cells assessed as cell growth at 10 uM after 48 hrs by sulforhodamine B assay relative to control; details: OVCAR-8, 48 h, read-out: Activity
OVCAR-4 [10] = assay: Cytotoxicity against human OVCAR4 cells assessed as cell growth at 1 uM after 48 hrs by sulforhodamine B assay relative to control; details: OVCAR-4, 48 h, read-out: Activity
SF-539 = assay: Cytotoxicity against human SF539 cells assessed as cell growth at 1 uM after 48 hrs by sulforhodamine B assay relative to control; details: SF-539, 48 h, read-out: Activity
OVCAR-5 = assay: Cytotoxicity against human OVCAR5 cells assessed as cell growth at 100 uM after 48 hrs by sulforhodamine B assay relative to control; details: OVCAR-5, 48 h, read-out: Activity
SW-620 = assay: Cytotoxicity against human SW620 cells assessed as cell growth at 100 uM after 48 hrs by sulforhodamine B assay relative to control; details: SW-620, 48 h, read-out: Activity
BT-549 [11] = assay: Cytotoxicity against human BT549 cells assessed as cell growth at 10 uM after 48 hrs by sulforhodamine B assay relative to control; details: BT-549, 48 h, read-out: Activity
SK-OV-3 = assay: Cytotoxicity against human SKOV3 cells assessed as cell growth at 0.01 uM after 48 hrs by sulforhodamine B assay relative to control; details: SK-OV-3, 48 h, read-out: Activity
IGROV-1 = assay: Cytotoxicity against human IGROV1 cells assessed as cell growth at 0.01 uM after 48 hrs by sulforhodamine B assay relative to control; details: IGROV-1, 48 h, read-out: Activity
K562 [12] = assay: Cytotoxicity against human K562 cells assessed as cell growth at 100 uM after 48 hrs by sulforhodamine B assay relative to control; details: K562, 48 h, read-out: Activity
Malme-3M [13] = assay: Cytotoxicity against human MALME-3M cells assessed as cell growth at 0.1 uM after 48 hrs by sulforhodamine B assay relative to control; details: read-out: Activity
NCI-H460 [14] = assay: Cytotoxicity against human NCI-H460 cells assessed as cell growth at 1 uM after 48 hrs by sulforhodamine B assay relative to control; details: NCI-H460, 48 h, read-out: Activity
KM12 = assay: Cytotoxicity against human KM12 cells assessed as cell growth at 0.1 uM after 48 hrs by sulforhodamine B assay relative to control; details: KM12, 48 h, read-out: Activity
K562 [15] = assay: Cytotoxicity against human K562 cells assessed as cell growth at 10 uM after 48 hrs by sulforhodamine B assay relative to control; details: K562, 48 h, read-out: Activity
NCI-H23 [16] = assay: Cytotoxicity against human NCI-H23 cells assessed as cell growth at 1 uM after 48 hrs by sulforhodamine B assay relative to control; details: NCI-H23, 48 h, read-out: Activity
OVCAR-3 = assay: Cytotoxicity against human OVCAR3 cells assessed as cell growth at 0.01 uM after 48 hrs by sulforhodamine B assay relative to control; details: OVCAR-3, 48 h, read-out: Activity
SN12C = assay: Cytotoxicity against human SN12C cells assessed as growth inhibition after 48 hrs by sulforhodamine B assay
NCI-H460 [17] = assay: Cytotoxicity against human NCI-H460 cells assessed as cell growth at 0.1 uM after 48 hrs by sulforhodamine B assay relative to control; details: NCI-H460, 48 h, read-out: Activity

COc1cc(-c2cc(/C=C/C(=O)c3ccc(N)cc3)[nH]n2)cc(OC)c1OC
growth at 0.01 µM (UACC-257): 94%
growth at 0.1 µM (BT-549 [1]): 93%
GI50 (COLO 205): 1.74 µM
LC50 (COLO 205): 6.42 µM
TGI (COLO 205): 3.34 µM
growth at 100 µM (MCF7): -57%
growth at 10 µM (OVCAR-4 [2]): -22%
growth at 0.1 µM (MDA-MB-468): 83%
growth at 0.01 µM (NCI-H23 [3]): 102%
growth at 100 µM (HOP-62 [4]): -98%
growth at 1 µM (NCI-H322M): 94%
growth at 0.01 µM (786-0): 92%
GI50 (T47D): 1.42 µM
LC50 (T47D): > 100 µM
TGI (T47D): 4.3 µM
growth at 0.1 µM (TK-10): 100%
growth at 0.01 µM (SR): 92%
growth at 1 µM (Malme-3M [5]): 93%
GI50 (MDA-MB-435 [6]): 1.66 µM
LC50 (MDA-MB-435 [6]): 6.2 µM
TGI (MDA-MB-435 [6]): 3.21 µM
growth at 100 µM (NCI-H226): -59%
growth at 10 µM (HOP-62 [7]): -59%
GI50 (K562 [8]): 0.72 µM
LC50 (concentration killing 50% of cells) (K562 [8]): > 100 µM
TGI (K562 [8]): 23.6 µM
growth at 0.01 µM (MDA-MB-435 [9]): 90%
growth at 10 µM (OVCAR-8): -1%
growth at 1 µM (OVCAR-4 [10]): 62%
growth at 1 µM (SF-539): 69%
growth at 100 µM (OVCAR-5): -66%
growth at 100 µM (SW-620): -40%
growth at 10 µM (BT-549 [11]): -89%
growth at 0.01 µM (SK-OV-3): 82%
growth at 0.01 µM (IGROV-1): 107%
growth at 100 µM (K562 [12]): -3%
growth at 0.1 µM (Malme-3M [13]): 102%
growth at 1 µM (NCI-H460 [14]): 78%
growth at 0.1 µM (KM12): 98%
growth at 10 µM (K562 [15]): 2%
growth at 1 µM (NCI-H23 [16]): 95%
growth at 0.01 µM (OVCAR-3): 101%
GI50 (SN12C): 1.86 µM
LC50 (SN12C): 13.4 µM
TGI (SN12C): 4.52 µM
growth at 0.1 µM (NCI-H460 [17]): 102%

COc1cc(C(=O)/C=C/c2cc(-c3ccc4c(c3)OCO4)n[nH]2)cc(OC)c1OC
growth at 0.01 µM (UACC-257): 98%
growth at 0.1 µM (BT-549 [1]): 97%
GI50 (COLO 205): 2.08 µM
LC50 (COLO 205): 12.6 µM
TGI (COLO 205): 4.66 µM
growth at 100 µM (MCF7): -69%
growth at 10 µM (OVCAR-4 [2]): -28%
growth at 0.1 µM (MDA-MB-468): 82%
growth at 0.01 µM (NCI-H23 [3]): 95%
growth at 100 µM (HOP-62 [4]): -91%
growth at 1 µM (NCI-H322M): 84%
growth at 0.01 µM (786-0): 99%
GI50 (T47D): 1.51 µM
LC50 (T47D): 19.9 µM
TGI (T47D): 4.63 µM
growth at 0.1 µM (TK-10): 92%
growth at 0.01 µM (SR): 97%
growth at 1 µM (Malme-3M [5]): 83%
GI50 (MDA-MB-435 [6]): 2.28 µM
LC50 (MDA-MB-435 [6]): 22.5 µM
TGI (MDA-MB-435 [6]): 5.8 µM
growth at 100 µM (NCI-H226): -46%
growth at 10 µM (HOP-62 [7]): -24%
GI50 (K562 [8]): 2.17 µM
LC50 (concentration killing 50% of cells) (K562 [8]): > 100 µM
TGI (K562 [8]): > 100 µM
growth at 0.01 µM (MDA-MB-435 [9]): 96%
growth at 10 µM (OVCAR-8): -23%
growth at 1 µM (OVCAR-4 [10]): 47%
growth at 1 µM (SF-539): 68%
growth at 100 µM (OVCAR-5): -56%
growth at 100 µM (SW-620): -65%
growth at 10 µM (BT-549 [11]): -38%
growth at 0.01 µM (SK-OV-3): 98%
growth at 0.01 µM (IGROV-1): 101%
growth at 100 µM (K562 [12]): 5%
growth at 0.1 µM (Malme-3M [13]): 83%
growth at 1 µM (NCI-H460 [14]): 90%
growth at 0.1 µM (KM12): 93%
growth at 10 µM (K562 [15]): 3%
growth at 1 µM (NCI-H23 [16]): 92%
growth at 0.01 µM (OVCAR-3): 98%
GI50 (SN12C): 2.26 µM
LC50 (SN12C): 23.4 µM
TGI (SN12C): 6.28 µM
growth at 0.1 µM (NCI-H460 [17]): 100%
